Experimental data: patent US10023519B2, “Cyclobutane containing carboxylic acid GPR120 modulators” (BRISTOL-MYERS SQUIBB COMPANY, priority 2014, dated 2018)

Target: human GPR120 (Homo sapiens (Human), UniProt Q5NUL3)
Assay: GPR120 pERK AlphaScreen SureFire Assay (human)
Assay type: cell-based
Settings: CHO cells stably transfected with short form of human GPR120
Excerpt: GPR120 activity was monitored by measuring phosphorylation of ERK (pERK), since G protein receptors are known to activate the ERK signaling cascade either directly and/or through recruitment of arrestin that serves as a scaffold for downstream signaling events.
GPR120 pERK AlphaScreen SureFire Assay
The human and mouse GPR120-mediated intracellular phosphorylated ERK assays were established using CHOA12 cells stably transfected with the short form of human or mouse GPR120 receptor. […] Cells were cryo preserved at a concentration of 2×10^7 cells/mL, in 90% Charcoal/Dextran FBS and 10% DMSO, and frozen in liquid nitrogen at a low passage number.
The flasks were placed in a tissue culture incubator overnight (37° C., 5% CO2). […] The next day, cells were serum starved in 30 μL of F-12 media without any serum or antibiotics for 2 hours at 37° C.
Cells were then stimulated with 50 nL of compound dilutions using ECHO liquid handler for 7 minutes at 37° C.
(§1) The lysis buffer was diluted 5-fold with water before use. […] The SureFire assay reagent mix was prepared by mixing 60 parts Reaction Buffer, 10 parts Activation Buffer, 1 part Donor Beads, 1 part Acceptor Beads (Perkin Elmer Cat. #TGRES10K). 3.5 μL/well of this reagent mix was manually added to the proxiplate with a multichannel pipettor. Plates were spun down at 1000 rpm for 2 minutes, followed by light-protected incubation at room temperature for 2 hours. The plates were read on the Alpha-technology compatible Envision multilabel plate reader using AlphaScreen protocol according to manufacturer's specifications. The agonist effect of compounds was expressed as 100× (average sample−average blank)/(average total−average blank) where sample is the luminescence activity in the presence of test compound, blank is equal to the luminescence activity in the presence of DMSO control and the total is signal induced by 50 μM linolenic acid as reference compound. Activation data for the test compound over a range of concentrations was plotted as percentage activation of the test compound (100%=maximum response). After correcting for background, EC50 values were determined.
The human and mouse GPR120-mediated intracellular phosphorylated ERK assays were also established using CHO-K1 cells stably transfected with the short form of human or mouse GPR120 receptor. […] Cells were cryo preserved at a concentration of 3×10^6 cells/mL, in 70% F-12, 20% Charcoal/Dextran FBS and 10% DMSO, and frozen in liquid nitrogen at a low passage number.
The flasks were placed in a tissue culture incubator overnight (37° C., 5% CO2).
Cells were then stimulated with 40 nL of compound dilutions using ECHO liquid handler for 7 minutes at 37° C.
as §1, with “compound.” for “compound. Activation data for the test compound over a range of concentrations was plotted as percentage activation of the test compound (100%=maximum response). After correcting for background, EC50 values were determined.”
Activation data for the test compound over a range of concentrations was plotted as percentage activation of the test compound (100%=maximum response). After correcting for background, EC50 values were determined.

Chain of human GPR120 (Q5NUL3 whole entry): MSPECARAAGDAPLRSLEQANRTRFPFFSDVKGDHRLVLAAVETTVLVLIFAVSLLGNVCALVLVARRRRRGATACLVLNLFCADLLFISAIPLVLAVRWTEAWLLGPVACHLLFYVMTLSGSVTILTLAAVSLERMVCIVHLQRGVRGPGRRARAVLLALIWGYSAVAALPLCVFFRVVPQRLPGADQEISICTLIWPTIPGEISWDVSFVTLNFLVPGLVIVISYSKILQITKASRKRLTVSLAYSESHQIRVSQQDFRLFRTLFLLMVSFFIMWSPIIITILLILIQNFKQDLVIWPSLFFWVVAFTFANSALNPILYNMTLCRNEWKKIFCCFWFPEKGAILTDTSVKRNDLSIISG

Row | Molecule | EC50 [nM]
1 | CC(C)Oc1ccc(F)c(-c2ccc(C[C@H]3C[C@H](CC(=O)O)C3)cc2)c1 [Example 52, 2-(Trans-3-((2′-fluoro-5′-isopropoxy-[1,1′-biphenyl]-4-yl)methyl)cyclobutyl)acetic acid] | 940
2 | COc1cc(Cl)cc(-c2ccc([C@H]3C[C@@H](OCC(=O)O)C3)cc2)c1 [Example 6, Cis-2-(3-(3′-chloro-5′-methoxy-[1,1′-biphenyl]-4-yl)cyclobutoxy)acetic acid] | 880
3 | O=C(O)CO[C@H]1C[C@@H](c2ccc(-c3cc(Oc4cccc(F)c4)ccc3F)cc2)C1 [Example 32, Cis-2-(3-(2′-fluoro-5′-(3-fluorophenoxy)-[1,1′-biphenyl]-4-yl)cyclobutoxy)acetic acid] | 230
4 | O=C(O)[C@H]1C[C@@H]1COCC1CC(c2cccc(Oc3ccccc3)c2)C1 (relative stereo) [Example 63, Trans-2-(((3-(3-phenoxyphenyl)cyclobutyl)methoxy)methyl)cyclopropanecarboxylic acid] | 1260
5 | O=C(O)CO[C@H]1C[C@@H](c2ccc(-c3cccc(C(=O)c4ccccc4)c3)cc2)C1 [Example 14, Cis-2-(3-(3′-benzoyl-[1,1′-biphenyl]-4-yl)cyclobutoxy) acetic acid] | 830
6 | O=C(O)CO[C@H]1C[C@@H](c2ccc(-c3cc(OC(F)(F)F)ccc3F)cc2)C1 [Example 17, Cis-2-(3-(2′-fluoro-5′-(trifluoromethoxy)-[1,1′-biphenyl]-4-yl)cyclobutoxy)acetic acid] | 550
7 | O=C(O)CO[C@H]1C[C@@H](c2ccc(-c3cc(OC4CCCCC4)ccc3F)cc2)C1 [Example 33, Cis-2-(3-(5′-(cyclohexyloxy)-2′-fluoro-[1,1′-biphenyl]-4-yl)cyclobutoxy)acetic acid] | 760
8 | O=C(O)COCC1CC(OCc2cccc(Oc3ccccc3)c2)C1 (stereo not shown) [Example 54, 2-((3-(3-Phenoxybenzyloxy)cyclobutyl)methoxy)acetic acid] | 3850
9 | O=C(O)COCCC[C@H]1C[C@@H](c2cccc(Oc3ccccc3)c2)C1 [Example 58, 2-(3-(Cis-3-(3-phenoxyphenyl)cyclobutyl)propoxy)acetic acid] | 420
10 | CC(C)Oc1cccc(-c2ccc([C@H]3C[C@@H](OCC(=O)O)C3)cc2)c1 [Example 7, Cis-2-(3-(3′-isopropoxy-[1,1′-biphenyl]-4-yl)cyclobutoxy) acetic acid] | 590
11 | Cis-2-(3-(2′,3′-difluoro- 5′-(3- fluorophenoxy)-[1,1′- biphenyl]-4-yl)cyclobutoxy) acetic acid [Example 37] | 590
12 | CC(C)Oc1cccc(-c2ccc([C@H]3C[C@@H](OCC(=O)O)C3)cc2)c1F [Example 10, Cis-2-(3-(2′-fluoro-3′-isopropoxy-[1,1′-biphenyl]-4-yl)cyclobutoxy) acetic acid] | 1020
13 | CC(C)Oc1ccc(F)c(-c2ccc(C3CC4(C3)CC4C(=O)O)cc2)c1 (single isomer, unassigned) [Example 42, 5-(2′-Fluoro-5′-isopropoxy-[1,1′-biphenyl]-4-yl)spiro[2.3]hexane-1-carboxylic acid] | 2210
14 | O=C(O)CCC[C@H]1C[C@@H](OCc2cccc(Oc3ccccc3)c2)C1 [Example 53, 4-(Cis-3-(3-phenoxybenzyloxy)cyclobutyl)butanoic acid] | 430
15 | O=C(O)CO[C@H]1C[C@@H](c2ccc(-c3cc(Oc4ccccn4)ccc3F)cc2)C1 [Example 26, Cis-2-(3-(2′-fluoro-5′-(pyridin-2-yloxy)-[1,1′-biphenyl]-4-yl)cyclobutoxy) acetic acid] | 490
16 | CC(C)Oc1ccc(F)c(-c2ccc([C@H]3C[C@@H](CCC(=O)O)C3)cc2)c1 [Example 46, Cis-3-(3-(2′-fluoro-5′-isopropoxy-[1,1′-biphenyl]-4-yl)cyclobutyl)propanoic acid] | 650

Row | Molecule | EC50 [nM]
17 | O=C(O)COCCC1CC(OCc2cccc(Oc3ccccc3)c2)C1 (stereo not shown) [Example 57, 2-(2-(3-(3-Phenoxybenzyloxy)cyclobutyl)ethoxy)acetic acid] | 700
18 | O=C(O)CO[C@H]1C[C@@H](c2ccc(-c3cc(OC4CCCOC4)ccc3F)cc2)C1 (stereo partly drawn) [Example 30, Cis2-(3-(2′-fluoro-5′-((tetrahydro-2H-pyran-3-yl)oxy)-[1,1′-biphenyl]-4-yl)cyclobutoxy)acetic acid] | 1400
19 | O=C(O)C[C@H]1C[C@@H](Oc2ccc(-c3cc(Oc4ccccc4)ccc3F)cc2)C1 [Example 67, Cis-2-(3-((2′-fluoro-5′-phenoxy-[1,1′-biphenyl]-4-yl)oxy)cyclobutyl)acetic acid] | 330
20 | COc1ccc(OC(F)(F)F)cc1-c1ccc([C@H]2C[C@@H](OCC(=O)O)C2)cc1 [Example 16, Cis-2-(3-(2′-methoxy-5′-(trifluoromethoxy)-[1,1′-biphenyl]-4-yl)cyclobutoxy)acetic acid] | 480
21 | Cc1ccc(Oc2cc(F)c(F)c(-c3ccc([C@H]4C[C@@H](OCC(=O)O)C4)cc3)c2)cc1F [Example 35, Cis-2-(3-(2′,3′-difluoro-5′-(3-fluoro-4-methylphenoxy)-[1,1′-biphenyl]-4-yl)cyclobutoxy)acetic acid] | 290
22 | Cc1nc(-c2ccccc2)c(-c2ccc([C@H]3C[C@@H](OCC(=O)O)C3)cc2)s1 [Example 23, Cis-2-(3-(4-(2-Methyl-4-phenylthiazol-5-yl)phenyl)cyclobutoxy)acetic acid] | 3460
23 | O=C(O)CO[C@H]1C[C@H](c2ccc(-c3cc(Oc4ccccc4)ccc3F)cc2)C1 [Example 39, Trans-2-(3-(2′-fluoro-5′-phenoxy-[1,1′-biphenyl]-4-yl)cyclobutoxy)acetic acid] | 410
24 | CC(C)Oc1ccc(F)c(-c2ccc(CC3CC(C(=O)O)C3)cc2)c1 (single isomer, unassigned) [Example 49, 3-((2′-Fluoro-5′-isopropoxy-[1,1′-biphenyl]-4-yl)methyl)cyclobutanecarboxylic acid] | 500
25 | O=C(O)CO[C@H]1C[C@@H](c2ccc(-c3cc(Oc4cccc(F)c4)cnc3Cl)cc2)C1 [Example 22, Cis-2-(3-(4-(2-Chloro-5-(3-fluorophenoxy)pyridin-3-yl)phenyl)cyclobutoxy)acetic acid] | 360
26 | Cc1ncc(Oc2ccc(F)c(-c3ccc([C@H]4C[C@@H](OCC(=O)O)C4)cc3)c2)s1 [Example 27, Cis-2-(3-(2′-fluoro-5′-((2-methylthiazol-5-yl)oxy)-[1,1′-biphenyl]-4-yl)cyclobutoxy)acetic acid] | 420
27 | CC(C)Oc1ccc(F)c(-c2ccc(CC3CC(C(=O)O)C3)cc2)c1 (single isomer, unassigned) [Example 48, 3-((2′-Fluoro-5′-isopropoxy-[1,1′-biphenyl]-4-yl)methyl)cyclobutanecarboxylic acid] | 790
28 | O=C(O)[C@H]1CC1[C@H]1C[C@@H](c2ccc(-c3cc(Oc4ccccc4)ccc3F)cc2)C1 (stereo in doubt) [Example 40, 2-(3-(2′-Fluoro-5′-phenoxy-[1,1′-biphenyl]-4-yl)cyclobutyl)cyclopropanecarboxylic acid] | 9270
29 | O=C(O)C[C@H]1C[C@H](Oc2ccc(-c3cc(Oc4ccccc4)ccc3F)cc2)C1 [Example 66, Trans-2-(3-((2′-fluoro-5′-phenoxy-[1,1′-biphenyl]-4-yl)oxy)cyclobutyl)acetic acid] | 110
30 | O=C(O)CO[C@H]1C[C@@H](c2ccc(-c3cc(Oc4ccncc4)ccc3F)cc2)C1 [Example 25, Cis-2-(3-(2′-fluoro-5′-(pyridin-4-yloxy)-[1,1′-biphenyl]-4-yl)cyclobutoxy)acetic acid] | 1900
31 | O=C(O)CO[C@H]1C[C@@H](c2ccc(-c3cccc(Cc4ccccc4)c3)cc2)C1 [Example 9, Cis-2-(3-(3′-benzyl-[1,1′-biphenyl]-4-yl)cyclobutoxy)acetic acid] | 1590
